From patent US11773399B2, “Methods and compositions for enhancing polypeptide production” (priority 2009, dated 2023)

Columns and labels:
[1] = tested on: host plants; assay: Toxicity of infiltrated antioxidant to the host plant (necrosis); conditions: for toxicity to the plant: 100 μM
Experimental: Transient infiltration was done according Medrano et al (2009), with some modifications as follows. Briefly, an A. tumefaciens inoculum integrated with the binary vector pBIB-Kan encoding IL-12 was cultured under standard conditions for 2 days at 28° C. The bacterial cultures were centrifuged and resuspended to a final OD600 of 0.2-0.8, in 400 mL of a induction medium (“IM”; 0.5× Murashige and Skoog basal medium salts, 1× MS vitamins, 5% sucrose, 1× benzylaminopurine, 200 μM acetosyringone, pH 5.5). The cultures were incubated in 1M for ≥3 h at 28° C. Vacuum infiltration of 4-5-week-old N. benthamiana was accomplished by inverting a plant into a 400 mL glass beaker containing IM, ensuring that all leaves of the plant are immersed in the media. The beaker was placed in a vacuum desiccator unit (240-mm inner diameter) and using a vacuum pump, maximum pressure (˜25 in. Hg) was applied for 2 min and then quickly released. Additional plants were subject to infiltration using the same construct/antioxidant culture, or replaced with a new beaker of IM containing another construct/antioxidant culture. […] Infiltrated plants were returned to the environmental chamber at conditions established previously during plant growth. In the case of both model transgene constructs, leaves were harvested from plants at 48 h post-infiltration and stored at −80° C. for subsequent analyses.
(§1) Vitamin E and vitamin K were solubilized in chloroform and kept on amber tube on ice. The final concentration range of vitamins E and K tested were 5-100 μM.

[2] = tested on: Stable N. tabacum lines; assay: hIL-12 expression in stable transgenic lines after vacuum infiltration, Western blot; type: in vivo; conditions: AsA in IM media, leaves 24 and 48 h
Experimental: (§2) Samples were resolved by SDS-PAGE (run under denaturing or reducing conditions) and Western immunoblotting analysis performed. For hIL-12 detection, primary antibody anti-human IL-12 (1:1000 v/v; R&D Systems) and secondary antibody anti-goat IgG-alkaline phosphatase conjugated (1:10,000 v/v; BIORAD®) was used. For chIL-12 detection, anti-6×His (C-term)-alkaline phosphatase conjugated (1:2000 v/v; Invitrogen) was used. Detection on immunoblots was carried out using the CDP-Star chemiluminescent substrate for alkaline phosphatase (Roche, Indianapolis, Ind.) and NitroBlock. Enhancer II (Tropix Inc., Bedford, Mass.) in accordance with manufacturers' procedures. Densitometry using the BIORAD® VERSDOC4000™ and QUANT-1® software package was employed and relative protein expression was determined in order to evaluate the effect of antioxidants on plant-made protein expression.
This finding further supports the concept that increasing the antioxidant capacity of the host plant enhances the overall biosynthesis of the plant in serving as a factory for recombinant protein production.

[3] = tested on: N. benthamiana plants; assay: Transient chIL-12 expression after vacuum co-infiltration, anti-his Western blot and densitometry; type: in vivo
Experimental: Transient infiltration was done according Medrano et al (2009), with some modifications as follows. Briefly, an A. tumefaciens inoculum integrated with the binary vector pBIB-Kan encoding IL-12 was cultured under standard conditions for 2 days at 28° C. The bacterial cultures were centrifuged and resuspended to a final OD600 of 0.2-0.8, in 400 mL of a induction medium (“IM”; 0.5× Murashige and Skoog basal medium salts, 1× MS vitamins, 5% sucrose, 1× benzylaminopurine, 200 μM acetosyringone, pH 5.5). The cultures were incubated in 1M for ≥3 h at 28° C. Vacuum infiltration of 4-5-week-old N. benthamiana was accomplished by inverting a plant into a 400 mL glass beaker containing IM, ensuring that all leaves of the plant are immersed in the media. The beaker was placed in a vacuum desiccator unit (240-mm inner diameter) and using a vacuum pump, maximum pressure (˜25 in. Hg) was applied for 2 min and then quickly released. Additional plants were subject to infiltration using the same construct/antioxidant culture, or replaced with a new beaker of IM containing another construct/antioxidant culture. A single IM culture was used for infiltrating typically 3 but up to 10 independent plants with no adverse effect on the amount of transgene product expressed and presence of exogenously introduced antioxidant in planta respectively. Infiltrated plants were returned to the environmental chamber at conditions established previously during plant growth. In the case of both model transgene constructs, leaves were harvested from plants at 48 h post-infiltration and stored at −80° C. for subsequent analyses.
Vitamin E and vitamin K were solubilized in chloroform and kept on amber tube on ice. […]
(§3) Samples were resolved by SDS-PAGE (run under denaturing or reducing conditions) and Western immunoblotting analysis performed. […] Densitometry using the BIORAD® VERSDOC4000™ and QUANT-1® software package was employed and relative protein expression was determined in order to evaluate the effect of antioxidants on plant-made protein expression.

[4] = tested on: transient system host plants; assay: Foliar ascorbate content of infiltrated host plants, ascorbate oxidase assay; type: in vivo, N. benthamiana; conditions: increasing infiltrated AsA
Experimental: Leaf tissue ground in the presence of liquid nitrogen with mortar/pestle was extracted. The foliar vitamin C content was determined by the ascorbate oxidase assay as previously described (Lorence et al., 2004). Briefly, tissue samples were harvested and immediately frozen in liquid nitrogen and stored at -80° C. till analysis. Samples were ground in 6% (w/v) meta-phosphoric acid, and centrifuged at 15,000×g for 10 min. Reduced vitamin C (a.k.a. ascorbate) was determined by measuring the decline in […] (extinction coefficient of 14.3 cm^-1 mM^-1) after addition of 1 unit of ascorbate oxidase (Sigma) to 1 mL of the reaction mix including tissue extract and 100 mM potassium phosphate (pH 6.9). […] Foliar ascorbate content was determined by a microplate reader-based method described herein. […] Reduced ascorbate was determined in a 300 μL reaction in triplicates by adding 275 μL of 0.1M of potassium phosphate buffer pH 6.9 into a 96-well plate (UV Flat Bottom Microplate, Thermo Scientific) containing 15 μL of sample supernatant. The mix was measured at […] and recorded. The decline in […] was measured after addition of 10 μL (1 U) of ascorbate oxidase (final concentration 0.0033 units of ascorbate oxidase, Sigma). […] The mix was measured at […] and recorded. […] […] was measure using a plate reader (model Power Wave XS, software KC Junior, Biotek).

[5] = tested on: N. benthamiana plants; assay: Transient hIL-12 expression after vacuum co-infiltration, Western blot and densitometry; type: in vivo; conditions: for increase in hIL-12 expression (semi-quantitative densitometry): 20 mM AsA in induction medium, vs construct alone
Experimental: Transient infiltration was done according Medrano et al (2009), with some modifications as follows. Briefly, an A. tumefaciens inoculum integrated with the binary vector pBIB-Kan encoding IL-12 was cultured under standard conditions for 2 days at 28° C. The bacterial cultures were centrifuged and resuspended to a final OD600 of 0.2-0.8, in 400 mL of a induction medium (“IM”; 0.5× Murashige and Skoog basal medium salts, 1× MS vitamins, 5% sucrose, 1× benzylaminopurine, 200 μM acetosyringone, pH 5.5). The cultures were incubated in 1M for ≥3 h at 28° C. Vacuum infiltration of 4-5-week-old N. benthamiana was accomplished by inverting a plant into a 400 mL glass beaker containing IM, ensuring that all leaves of the plant are immersed in the media. The beaker was placed in a vacuum desiccator unit (240-mm inner diameter) and using a vacuum pump, maximum pressure (˜25 in. Hg) was applied for 2 min and then quickly released. Additional plants were subject to infiltration using the same construct/antioxidant culture, or replaced with a new beaker of IM containing another construct/antioxidant culture. A single IM culture was used for infiltrating typically 3 but up to 10 independent plants with no adverse effect on the amount of transgene product expressed and presence of exogenously introduced antioxidant in planta respectively. Infiltrated plants were returned to the environmental chamber at conditions established previously during plant growth. […]
as §1, §2

[6] = tested on: plant transient bioproduction system; assay: Transient expression of a 94 kDa human glycoprotein, Western blot; type: in vivo; conditions: 20 mM co-infiltrated AsA, 72 hrs post-infiltration
Experimental: Transient infiltration was done according Medrano et al (2009), with some modifications as follows. Briefly, an A. tumefaciens inoculum integrated with the binary vector pBIB-Kan encoding IL-12 was cultured under standard conditions for 2 days at 28° C. The bacterial cultures were centrifuged and resuspended to a final OD600 of 0.2-0.8, in 400 mL of a induction medium (“IM”; 0.5× Murashige and Skoog basal medium salts, 1× MS vitamins, 5% sucrose, 1× benzylaminopurine, 200 μM acetosyringone, pH 5.5). The cultures were incubated in 1M for ≥3 h at 28° C. Vacuum infiltration of 4-5-week-old N. benthamiana was accomplished by inverting a plant into a 400 mL glass beaker containing IM, ensuring that all leaves of the plant are immersed in the media. The beaker was placed in a vacuum desiccator unit (240-mm inner diameter) and using a vacuum pump, maximum pressure (˜25 in. Hg) was applied for 2 min and then quickly released. […]
as §3

[7] = tested on: H2O2 in leaves; assay: In situ H2O2 detection in leaves, DAB staining; type: in vivo, N. benthamiana
Excerpt: Staining for H2O2 in leaves which correlates with the presence of reactive oxygen species (ROS) is detected by an endogenous peroxidase-dependent staining procedure, using 3,3-diaminobenzidine (DAB). This assay provides a comparative in situ measure of the ROS levels in planta (Thordal-Christensen et al., 1997).

[8] = tested on: N. benthamiana leaves; assay: Recovery of purified hIL-12, heterodimer-specific hIL-12 ELISA; type: in vivo; conditions: 20 mM exogenously added AsA vs no antioxidant
Experimental: The amount of hIL-12 expressed in N. benthamiana leaves in the presence or absence of modified antioxidants levels during bioproduction was quantitated using a commercially available heterodimer-specific hIL-12 enzyme-linked immunoabsorbant assay (ELISA) (R&D Systems). To assay hIL-12, leaves were ground in PBS buffer (137 mM NaCl, 2.7 mM KCl, 10.1 mM Na2HPO4, and […] KH2PO4 pH 7.0) at a 1:2 (w/v) ratio and supernatant extracts were analyzed by the ELISA. For hIL-12 detection, the ELISA used monoclonal antibodies specific for hIL-12 p70 for capture (0.2 μg/mL) and biotinylated anti-human IL-12 antibody for detection (4 μg/mL). Streptavidin-HRP (1:200 v/v) was used for chemiluminescence and 3,3′,5,5′-tetramethylbenzidine (TMB; KPL) as a substrate for detection. Densitometry using the BIORAD® VERSDOC4000™ and QUANT-1® software package was employed and was established relative protein expression in order to evaluate the impact of antioxidants on its expression in plants.

Molecule: vitamin K
- toxicity to the plant [1]: detrimental

Molecule: O=C1O[C@H]([C@@H](O)CO)C(O)=C1O [AsA, ascorbic acid]
- hIL-12 protein levels in stable transgenic plants [2]: increasing the overall expression of hIL-12 protein levels
- effect on leaves/cells of host plants ([1]; 80 mM): began to show signs of necrosis
- effect on leaves/cells of host plants ([1]; 80 mM, listed as vitamin C): detrimental
- effect on leaves/cells of host plants ([1]; 100 mM): significant necrotic lesions
- effect on leaves/cells of host plants ([1]; 100 mM, listed as vitamin C): detrimental
- increase in chIL-12 protein expression ([3]; 20 mM AsA, 48 h post-infiltration, on average): ~3 fold
- in planta foliar AsA levels [4]: dose-dependent increase
- hIL-12 protein expression levels, dose response ([5]; 0, 20, 40, 60 mM AsA): dose dependent increase
- increase in hIL-12 expression (semi-quantitative densitometry) [5]: 25-30%
- increase in hIL-12 expression (semi-quantitative densitometry) ([5]; listed as vitamin C): ~25%
- monomeric, single-chain hIL12 on Western blot ([5]; 20 mM co-infiltrated AsA vs construct alone): significant increase
- oligomer formation of hIL-12 ([5]; 48 and 72 h post-infiltration, vs 0 mM AsA): abrogates oligomer formation of hIL-12
- time hIL-12 is sustained in planta ([5]; co-infiltrated AsA vs 0 mM AsA): up to 72 h
- effective dose range for recombinant protein production ([5]; plant transient infiltration system): 20 to 60 mM
- stable accumulation of 94 kDa human glycoprotein [6]: enhanced
- H2O2 staining (DAB) ([7]; 80 mM AsA): some staining
- H2O2 staining (DAB) ([7]; 100 mM AsA): clearly detectable
- H2O2 staining (DAB) ([7]; 20 to 60 mM AsA): minimal
- more purified hIL12 product recovered (ELISA) [8]: 20-25%

Molecule: vitamin E
- toxicity to the plant [1]: appeared to be toxic
- chIL12 protein production at higher concentrations ([3]; 50-100 μM): reduced improvement in protein production
- concentration with greatest impact in transient chIL12 protein expression ([3]; dose-response 5-100 mM): 20 µM
- transient hIL-12 expression ([5]; vitamin E alone): no effect on expression
